Experimental findings from patent US6613772B1, “Substituted 2-aryl-4-amino-chinazolines, method for the production and use thereof as medicaments” (Aventis Pharma Deutschland GmbH, priority 1997, dated 2003) are described below.

Each structure is given as a SMILES string.

The target of series [1] is T1, soluble guanylate cyclase (sGC) (Bos taurus, UniProt P16068+P19687).
T1 construct: The sGC employed had been isolated from bovine lung; from tissue; host or cells: bovine lung
T1 sequence (P19687 1-691): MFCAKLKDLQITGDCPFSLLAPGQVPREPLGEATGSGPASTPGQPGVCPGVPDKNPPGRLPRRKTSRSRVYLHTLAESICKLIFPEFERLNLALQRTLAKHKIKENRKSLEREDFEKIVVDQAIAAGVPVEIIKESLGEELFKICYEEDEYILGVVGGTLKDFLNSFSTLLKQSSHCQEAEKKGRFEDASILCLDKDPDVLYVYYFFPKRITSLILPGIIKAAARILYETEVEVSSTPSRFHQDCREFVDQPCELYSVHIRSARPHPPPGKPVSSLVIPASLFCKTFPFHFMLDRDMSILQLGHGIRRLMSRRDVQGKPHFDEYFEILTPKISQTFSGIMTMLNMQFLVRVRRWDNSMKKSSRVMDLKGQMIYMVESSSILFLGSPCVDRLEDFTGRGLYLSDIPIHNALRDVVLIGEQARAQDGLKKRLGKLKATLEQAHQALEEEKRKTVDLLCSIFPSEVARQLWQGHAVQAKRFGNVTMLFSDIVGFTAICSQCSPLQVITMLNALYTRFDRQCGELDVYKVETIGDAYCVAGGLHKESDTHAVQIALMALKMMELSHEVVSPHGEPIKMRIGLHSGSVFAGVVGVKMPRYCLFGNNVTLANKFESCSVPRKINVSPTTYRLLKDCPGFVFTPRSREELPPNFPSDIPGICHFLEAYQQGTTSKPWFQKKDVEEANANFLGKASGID
T1 sequence (P16068 1-619): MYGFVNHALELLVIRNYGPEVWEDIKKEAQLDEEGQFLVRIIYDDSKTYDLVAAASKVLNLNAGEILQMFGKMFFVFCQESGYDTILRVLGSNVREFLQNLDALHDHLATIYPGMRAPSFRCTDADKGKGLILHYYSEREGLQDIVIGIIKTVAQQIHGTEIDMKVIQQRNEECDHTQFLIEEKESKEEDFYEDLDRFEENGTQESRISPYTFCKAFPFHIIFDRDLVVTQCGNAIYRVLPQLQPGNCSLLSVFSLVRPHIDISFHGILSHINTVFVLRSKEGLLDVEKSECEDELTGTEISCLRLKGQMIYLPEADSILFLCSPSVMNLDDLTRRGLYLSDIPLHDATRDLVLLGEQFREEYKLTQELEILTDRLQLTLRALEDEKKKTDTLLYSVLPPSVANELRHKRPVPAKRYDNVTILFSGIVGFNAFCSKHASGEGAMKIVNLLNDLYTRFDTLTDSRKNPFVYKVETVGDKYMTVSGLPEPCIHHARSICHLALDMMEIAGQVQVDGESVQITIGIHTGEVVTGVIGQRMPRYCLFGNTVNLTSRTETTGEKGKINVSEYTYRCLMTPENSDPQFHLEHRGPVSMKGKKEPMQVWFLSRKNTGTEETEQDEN
The series can be described thus: Activation of the soluble guanylate cyclase (cGMP enzyme immunoassay). It is filed as biochemical. As to conditions: test substance 50 μM; sGC isolated from bovine lung; [cGMP] test substance/[cGMP] control (basal activity, solvent); 37° C., 15 to 20 minutes. The protocol:
Activation of the Soluble Guanylate Cyclase
The activation of the soluble guanylate cyclase (sGC), which catalyzes the conversion of guanosine triphosphate (GTP) into cyclic guanosine monophosphate (cGMP) and pyrophosphate, by the compounds according to the invention was quantified with the aid of an enzyme immunoassay (EIA) from Amersham. For this, the test substances were first incubated with sGC in microtiter plates and then the amount of resulting cGMP was determined. The sGC employed had been isolated from bovine lung (see Methods in Enzymology, Volume 195, p. 377). The test solutions (100 μl per well) contained 50 mM triethanolamine (TEA) buffer (pH 7.5), 3 mM MgCl2, 3 mM reduced glutathione (GSH), 0.1 mM GTP, 1 mM 3-isobutyl-1-methylxanthine (IBMX), suitably diluted enzyme solution and the test substance or, in the case of the control experiments, solvent. The test substances were dissolved in dimethyl sulfoxide (DMSO) and the solution was diluted with DMSO/water such that the final concentration of test substance in the test solution was 50 μM. The DMSO concentration in the test solution was 5% (v/v). The reaction was started by addition of the sGC. The reaction mix was incubated at 37° C. for 15 to 20 minutes and then stopped by ice-cooling and addition of the stop reagent (50 mM EDTA, pH 8.0). An aliquot of 50 μl was taken and employed for the determination of the cGMP content using the acetylation protocol of the Amersham cGMP EIA kit. The absorption of the samples was measured at 450 nm (reference wavelength 620 nm) in a microtiter plate reader. The cGMP concentration was determined by means of a calibration curve which was obtained under the same experimental conditions. The activation of the sGC by a test substance is indicated as n-fold stimulation of the basal enzyme activity which was found in the control experiments (with solvent instead of test substance calculated according to the formula
n-fold stimulation=[cGMP]test substance/[cGMP]control).

In the case of `COc1cc2c(N3CCN(Cc4ccccc4)CC3)nc(-c3ccc(Cl)cc3)nc2c(OC)c1OC` [Example 09, 2-(4-Chlorophenyl)-4-(4-benzylpiperazino)-6,7,8-trimethoxyquinazoline], in series [1], the “n-fold Stimulation” value is 4 n-fold.
For the compound `COc1cc2c(NCCN(C(C)C)C(C)C)nc(-c3ccc(Cl)cc3)nc2c(OC)c1OC.Cl` [Example 11, 2-(4-Chlorophenyl)-4-(2-diisopropylaminoethylamino)-6,7,8-trimethoxyquinazoline Hydrochloride], the melting point (as a rule, the temperature of the solid-liquid transition) came out at 189 °C. For the same compound, in series [1], the “n-fold Stimulation” value is 6 n-fold.
The corresponding values for `COc1cc2c(N3CCN(CC(=O)N4CCOCC4)CC3)nc(-c3ccc(Cl)cc3)nc2c(OC)c1OC` [Example 12, 2-(4-Chlorophenyl)-4-(4-(morpholinocarbonylmethyl)piperazino)-6,7,8-trimethoxyquinazoline] are 177 °C and 6 n-fold.
For `COc1cc2c(N3CCN(CCO)CC3)nc(-c3ccc(Cl)cc3)nc2c(OC)c1OC` [Example 13, 2-(4-Chlorophenyl)-4-(4-(2-hydroxyethyl)piperazino)-6,7,8-trimethoxyquinazoline], in that order: 175 °C and 7 n-fold.
The corresponding values for `COc1cc2c(NCCCN3CCOCC3)nc(-c3ccc(Cl)cc3)nc2c(OC)c1OC.Cl` [Example 14, 2-(4-Chlorophenyl)-4-(3-morpholinopropylamino)-6,7,8-trimethoxyquinazoline Hydrochloride] are 190 °C and 3 n-fold.
The compound `COc1cc2nc(-c3ccc(Cl)cc3)nc(N3CCN(C)CC3)c2cc1OC.Cl` [Example 17, 2-(4-Chlorophenyl)-4-(4-methylpiperazino)-6,7-dimethoxyquinazoline Hydrochloride] gave a melting point of 249 °C. The “n-fold Stimulation” value in series [1] is 4 n-fold.
The corresponding values for `COc1cc2nc(-c3ccc(Cl)cc3)nc(NCCO)c2cc1OC` [Example 20, 2-(4-Chlorophenyl)-4-(2-hydroxyethylamino)-6,7-dimethoxyquinazoline] are 236 °C and 5 n-fold.
As to `COc1cc2nc(-c3ccc(Cl)cc3)nc(N3CCN(CCO)CC3)c2cc1OC` [Example 23, 2-(4-Chlorophenyl)-4-(4-(2-hydroxyethyl)piperazino)-6,7-dimethoxyquinazoline], the melting point was 163 °C. The “n-fold Stimulation” value in series [1] is recorded as 4 n-fold.
`COc1cc2nc(-c3ccc(Cl)cc3)nc(N3CCN(CC(=O)NC(C)C)CC3)c2cc1OC` [Example 24, 2-(4-Chlorophenyl)-4-(4-(isopropylaminocarbonylmethyl)piperazino)-6,7-dimethoxyquinazoline] gave a melting point of 187 °C. Further, in series [1], the “n-fold Stimulation” value came to 3 n-fold.
The corresponding values for `COc1cc2nc(-c3ccc(Cl)cc3)nc(NCC(N)=O)c2cc1OC` [Example 25, 2-(4-Chlorophenyl)-4-((aminocarbonylmethyl)amino)-6,7-dimethoxyquinazoline] are 291 °C and 3 n-fold.
`COc1cc2nc(-c3ccc(Cl)cc3)nc(NCc3cccnc3)c2cc1OC` [Example 28, 2-(4-Chlorophenyl)-4-((3-pyridylmethyl)amino)-6,7-dimethoxyquinazoline]: the melting point turned out to be 232 °C. Moreover, in series [1], the “n-fold Stimulation” value is reported as 5 n-fold.
With `COc1cc2c(N3CCN(c4ccccn4)CC3)nc(-c3ccc(Cl)cc3)nc2c(OC)c1OC` [Example 78, 2-(4-Chlorophenyl)-4-(4-(2-pyridyl)piperazino)-6,7,8-trimethoxyquinazoline], the melting point worked out at 141 °C.
As to `CCCN(CCC)c1nc(-c2ccc(Cl)cc2)nc2c(OC)c(OC)c(OC)cc12` [Example 80, 2-(4-Chlorophenyl)-4-dipropylamino-6,7,8-trimethoxyquinazoline], the melting point was 109 °C.
`CCCN(CCC)c1nc(-c2ccc(Cl)cc2)nc2cc(OC)c(OC)cc12` [Example 81, 2-(4-Chlorophenyl)-4-dipropylamino-6,7-dimethoxyquinazoline]: the melting point turned out to be 223 °C.
Still for that read-out and setting: the value for `CCCN(CCC)c1nc(-c2cc(C(F)(F)F)cc(C(F)(F)F)c2)nc2c(OC)c(OC)c(OC)cc12` [Example 82, 2-(3,5-Bistrifluoromethylphenyl)-4-dipropylamino-6,7,8-trimethoxyquinazoline] was 121 °C; that for `COc1cc2nc(-c3ccc(C)cc3)nc(N3CC(C)OC(C)C3)c2cc1OC` (stereo not shown) [Example 83, 2-(4-Methylphenyl)-4-(2,6-dimethylmorpholino)-6,7-dimethoxyquinazoline] was 177 °C; that for `COCCCNc1nc(-c2ccc(C)cc2)nc2cc(OC)c(OC)cc12` [Example 84, 2-(4-Methylphenyl)-4-(3-methoxypropylamino)-6,7-dimethoxyquinazoline] was 162 °C.
`COc1cc2nc(-c3ccc(Cl)cc3)nc(N3CC(C)OC(C)C3)c2cc1OC` (stereo not shown) [Example 85, 2-(4-Chlorophenyl)-4-(2,6-dimethylmorpholino)-6,7-dimethoxyquinazoline] displayed a melting point of 165 °C.
With `COCCCNc1nc(-c2ccc(Cl)cc2)nc2cc(OC)c(OC)cc12` [Example 86, 2-(4-Chlorophenyl)-4-(3-methoxypropylamino)-6,7-dimethoxyquinazoline], the melting point stood at 240 °C.
In turn, `COc1cc2nc(-c3ccc(Cl)cc3)nc(N3CCC(C(N)=O)CC3)c2cc1OC` [Example 88, 2-(4-Chlorophenyl)-4-(4-aminocarbonylpiperidino)-6,7-dimethoxyquinazoline] registered a melting point of 225 °C.
On to `COc1cc2nc(-c3ccc(Cl)cc3)nc(N3CCCCCC3)c2cc1OC` [Example 89, 2-(4-Chlorophenyl)-4-hexamethyleneimino-6,7-dimethoxyquinazoline], for which the melting point was found to be 189 °C.
Same read-out and setting: the value for `COc1cc2nc(-c3ccc(Cl)cc3)nc(N3C[C@@H](C)O[C@@H](C)C3)c2cc1OC` [Example 90, 2-(4-Chlorophenyl)-4-(cis-2,6-dimethylmorpholino)-6,7-dimethoxyquinazoline] was 223 °C.
With `COc1cc2c(N3CCC(O)CC3)nc(-c3ccc(Cl)cc3)nc2c(OC)c1OC` [Example 95, 2-(4-Chlorophenyl)-4-(4-hydroxypiperidino)-6,7,8-tdmethoxyquinazoline], the “n-fold Stimulation” value in series [1] was determined as 7 n-fold.
`COc1cc2nc(-c3ccc(C)cc3)nc(N(C)Cc3cccnc3)c2cc1OC` [Example 97, 2-(4-Methylphenyl)-4-(N-methyl-N-(3-pyridylmethyl)amino)-6,7-dimethoxyquinazoline] registered a melting point of 165 °C.
